For assay [1], the target named is Focal Adhesion Kinase (FAK) (Homo sapiens, UniProt Q05397). The assay can be described thus: FAK assay system (Focal Adhesion Kinase inhibition). The class given is biochemical. Particulars: read-out: FAK IC50.
The target of a further assay is FAK (Mus musculus, UniProt P34152). Nature of the assay: Phos IC50 (phosphorylation). The class given is cell-based.
Assay [2] concerns Mouse mammary carcinoma 4T1 cells. Nature of the assay: Anchorage-independent tumor cell growth assay. The class given is cell-based. Conditions: Mus musculus, 4T1. Here is the method: Cells are cultured for 2 h and inhibitors are added at various concentrations in a final concentration of 0.1% DMSO. After 48 h, cell growth is assayed with the cell counting kit-8 (Wako Pure Chemical), which uses a water soluble tetrazolium salt WST8. Twenty μL of the reagent is added into each well and cells are further cultured for 2 h. The optical density is measured at 450 nm.

The values below come from patent US7893074B2, “2, 4-pyrimidinediamines useful in the treatment of neoplastic diseases, inflammatory and immune system disorders” (Novartis AG, priority 2003, dated 2011).

Sequence of FAK (P34152 2-1052): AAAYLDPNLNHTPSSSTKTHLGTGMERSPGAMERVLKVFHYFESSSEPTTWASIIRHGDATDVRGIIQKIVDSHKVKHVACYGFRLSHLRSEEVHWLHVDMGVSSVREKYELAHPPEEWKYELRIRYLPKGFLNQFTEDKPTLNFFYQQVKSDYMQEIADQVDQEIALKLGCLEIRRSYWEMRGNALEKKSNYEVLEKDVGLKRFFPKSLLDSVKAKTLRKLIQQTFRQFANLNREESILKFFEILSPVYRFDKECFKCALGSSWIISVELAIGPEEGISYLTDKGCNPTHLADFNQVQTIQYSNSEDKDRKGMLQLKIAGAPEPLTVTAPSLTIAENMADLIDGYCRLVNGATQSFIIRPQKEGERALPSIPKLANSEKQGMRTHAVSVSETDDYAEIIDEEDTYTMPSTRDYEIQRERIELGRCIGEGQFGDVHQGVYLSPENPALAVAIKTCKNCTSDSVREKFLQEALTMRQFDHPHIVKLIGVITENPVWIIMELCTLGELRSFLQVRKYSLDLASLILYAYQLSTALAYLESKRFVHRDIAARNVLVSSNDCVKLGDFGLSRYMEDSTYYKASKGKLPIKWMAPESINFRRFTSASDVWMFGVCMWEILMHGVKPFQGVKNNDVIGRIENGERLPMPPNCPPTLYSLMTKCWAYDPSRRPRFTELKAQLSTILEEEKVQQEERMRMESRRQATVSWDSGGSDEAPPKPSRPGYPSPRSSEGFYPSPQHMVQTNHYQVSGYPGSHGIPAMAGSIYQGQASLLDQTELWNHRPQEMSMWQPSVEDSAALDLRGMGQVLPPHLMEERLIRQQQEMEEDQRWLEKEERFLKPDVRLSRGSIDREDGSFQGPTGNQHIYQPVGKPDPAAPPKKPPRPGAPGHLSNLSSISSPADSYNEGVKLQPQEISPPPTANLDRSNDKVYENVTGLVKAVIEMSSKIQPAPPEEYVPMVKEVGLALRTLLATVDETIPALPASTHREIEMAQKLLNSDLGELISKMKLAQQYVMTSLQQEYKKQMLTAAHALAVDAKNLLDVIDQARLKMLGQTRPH
Sequence of Focal Adhesion Kinase (FAK) (Q05397 384-706): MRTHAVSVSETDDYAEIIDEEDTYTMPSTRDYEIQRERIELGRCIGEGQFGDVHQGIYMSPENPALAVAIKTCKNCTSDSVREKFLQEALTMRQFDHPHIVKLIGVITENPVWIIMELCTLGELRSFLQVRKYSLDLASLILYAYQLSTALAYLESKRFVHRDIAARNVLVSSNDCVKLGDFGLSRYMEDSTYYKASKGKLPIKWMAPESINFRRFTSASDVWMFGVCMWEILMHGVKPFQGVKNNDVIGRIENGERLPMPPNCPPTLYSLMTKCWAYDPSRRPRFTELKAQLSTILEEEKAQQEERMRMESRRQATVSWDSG

As for `CNC(=O)c1ccccc1Nc1nc(Nc2ccc(OCCN3CCOCC3)cc2OC)ncc1Cl` [Example 7-4], the IC50 (commonly the midpoint of a concentration-inhibition curve) in assay [1] is 5.2 nM; against FAK it was 1000 nM; in assay [2] it was 290 nM.

Regarding `CNC(=O)c1ccccc1Nc1nc(Nc2ccc(N3CCN(C(C)=O)CC3)cc2OC)ncc1Cl` [Example 7-7], the IC50 in assay [1] turned out to be 4.1 nM; against FAK, 900 nM; in assay [2] it was 180 nM.

As for `CNC(=O)c1ccccc1Nc1nc(Nc2ccc(N3CCC(O)CC3)cc2OC)ncc1Cl` [Example 7-8], the half-inhibitory concentration (IC50) in assay [1] came to 8.7 nM; against FAK, 800 nM; in assay [2], 1000 nM.

Regarding `CCOCCOC1CCN(c2ccc(Nc3ncc(Cl)c(Nc4ccccc4C(=O)NC)n3)c(OC)c2)CC1` [Example 7-9], the 50% inhibitory concentration (IC50) in assay [1] is 8.2 nM; on FAK it was 1000 nM; in assay [2], 850 nM.

As for `CNC(=O)c1ccccc1Nc1nc(Nc2ccc(N3CCC(OCCOC)CC3)cc2OC)ncc1Cl` [Example 7-10], the 50% inhibitory concentration (IC50) in assay [1] amounted to 6.6 nM; at FAK it was 1000 nM; in assay [2] it was 980 nM.

On to `CNC(=O)c1ccccc1Nc1nc(Nc2ccc(N3CCC(C(N)=O)CC3)cc2OC)ncc1Cl` [Example 7-13], for which the IC50 in assay [1] was determined as 5.5 nM; against FAK it was 800 nM; in assay [2] it was 1220 nM.

`CNC(=O)c1ccccc1Nc1nc(Nc2ccc(N3CCN4CCOC[C@@H]4C3)cc2OC)ncc1Cl` [Example 7-16]: the IC50 worked out at 6.4 nM in assay [1], 200 nM at FAK and 420 nM in assay [2].

For the compound `CNC(=O)c1ccccc1Nc1nc(Nc2ccc(OCC3CCN(C)CC3)cc2OC)ncc1Cl` [Example 7-20], the 50% inhibitory concentration (IC50) in assay [1] was 2.5 nM; against FAK it was > 10000 nM; in assay [2] it was 110 nM.

For the compound `CNC(=O)c1ccccc1Nc1nc(Nc2ccc(OCCN3CCN(C)CC3)cc2OC)ncc1Cl` [Example 7-21], the results for the IC50 (in assay [1]; against FAK; in assay [2]) were 3.3 nM, > 10000 nM and 460 nM, respectively.

For `CNC(=O)c1ccccc1Nc1nc(Nc2cccc3[nH]ccc23)ncc1Cl` [Example 7-27], the figures for the IC50 (in assay [1]; against FAK; in assay [2]) were 21 nM, 500 nM and 220 nM, respectively.

On to `CNC(=O)c1ccccc1Nc1nc(Nc2cccc3c2ccn3C)ncc1Cl` [Example 7-28], for which the IC50 turned out to be 34 nM in assay [1], 1000 nM against FAK and 150 nM in assay [2].

Take `CNC(=O)c1ccccc1Nc1nc(Nc2ccc(N3CCOCC3)c3c2ccn3C)ncc1Cl` [Example 7-29]: the IC50 in assay [1] was 57 nM; against FAK, 2000 nM; in assay [2] it was 480 nM.

As to `CNC(=O)c1ccccc1Nc1nc(Nc2cc(N3CCOCC3)ccc2OC)ncc1Br` [Example 8-1], the IC50 in assay [1] was 6.6 nM; on FAK, 600 nM; in assay [2], 330 nM.

Turning to `CNC(=O)c1ccccc1Nc1nc(Nc2ccc(N3CCOCC3)cc2OC)ncc1Br` [Example 8-2], the IC50 turned out to be 2.4 nM in assay [1], 500 nM at FAK and 990 nM in assay [2].

Turning to `CNC(=O)c1ccccc1Nc1nc(Nc2ccc(F)cc2OC)ncc1Br` [Example 8-4], the IC50 in assay [1] is 8 nM; at FAK, > 10000 nM; in assay [2], 1100 nM.

Consider `CCNC(=O)c1ccccc1Nc1nc(Nc2ccc(N3CCN(C)CC3)cc2OC)ncc1Cl` [Example 9-2], for which the half-maximal inhibitory concentration (IC50) worked out at 15 nM in assay [1], 500 nM against FAK and 810 nM in assay [2].

As for `CCNC(=O)c1ccccc1Nc1nc(Nc2ccc(N3CCC(N4CCCC4)CC3)cc2OC)ncc1Cl` [Example 9-4], the values for the IC50 (in assay [1]; at FAK; in assay [2]) were 13 nM, 200 nM and 730 nM, respectively.

As for `CCNC(=O)c1ccccc1Nc1nc(Nc2cc(N3CCC(N4CCCCC4)CC3)ccc2OC)ncc1Cl` [Example 9-7], the results for the IC50 (in assay [1]; against FAK; in assay [2]) were 17 nM, > 10000 nM and 260 nM, respectively.

Regarding `CNC(=O)c1c(C)cccc1Nc1nc(Nc2ccc(OC3CCN(C)CC3)cc2OC)ncc1Cl` [Example 10-1], the IC50 in assay [1] came to 39 nM; on FAK it was 1000 nM; in assay [2], 440 nM.

On to `CNC(=O)c1c(C)cccc1Nc1nc(Nc2ccc(N3CCC(N4CCCCC4)CC3)cc2OC)ncc1Cl` [Example 10-2], for which the 50% inhibitory concentration (IC50) was 26 nM in assay [1], 900 nM against FAK and 1060 nM in assay [2].

Regarding `CNC(=O)c1c(C)cccc1Nc1nc(Nc2ccc(N3CCOCC3)cc2OC)ncc1Cl` [Example 10-3], the results for the IC50 (in assay [1]; at FAK; in assay [2]) were 23 nM, 900 nM and 2400 nM, respectively.

As to `CNC(=O)c1cc(F)ccc1Nc1nc(Nc2ccc(N3CCOCC3)cc2OC)ncc1Cl` [Example 11-1], the half-inhibitory concentration (IC50) came to 9 nM in assay [1], 700 nM at FAK and 850 nM in assay [2].

On to `CNC(=O)c1cc(F)ccc1Nc1nc(Nc2ccc(N3CCC(N4CCCCC4)CC3)cc2OC)ncc1Cl` [Example 11-2], for which the IC50 came to 4.1 nM in assay [1], 800 nM on FAK and 690 nM in assay [2].

In the case of `CNC(=O)c1cc(F)ccc1Nc1nc(Nc2cccc3c2ccn3C)ncc1Cl` [Example 11-3], the IC50 in assay [1] was determined as 26 nM; on FAK, 410 nM; in assay [2], 100 nM.

On to `CNC(=O)c1cc(F)ccc1Nc1nc(Nc2ccc(N3CCN(C(C)=O)CC3)cc2OC)ncc1Cl` [Example 11-4], for which the IC50 was 4.3 nM in assay [1], > 10000 nM against FAK and 3200 nM in assay [2].

For `CCNC(=O)c1cc(F)ccc1Nc1nc(Nc2ccc(N3CCOCC3)cc2OC)ncc1Cl` [Example 14-5], the 50% inhibitory concentration (IC50) in assay [1] was 37 nM; on FAK it was > 10000 nM; in assay [2], 1000 nM.

For the compound `COc1cc(N2CCOCC2)ccc1Nc1ncc(Cl)c(Nc2ccccc2S(=O)(=O)N2CCOCC2)n1` [Example 14-7], the values for the IC50 (in assay [1]; against FAK; in assay [2]) were 7.5 nM, 200 nM and 1400 nM, respectively.

`CNC(=O)c1cc(N2CCCC2)ccc1Nc1nc(Nc2ccc(OC3CCN(C)CC3)cc2OC)ncc1Cl` [Example 15-2]: the values for the IC50 (in assay [1]; against FAK; in assay [2]) were 21 nM, > 10000 nM and 660 nM, respectively.

As for `CNC(=O)c1cc(N2CCOCC2)ccc1Nc1nc(Nc2ccc(F)cc2OC)ncc1Cl` [Example 16-1], the half-inhibitory concentration (IC50) in assay [1] is 44 nM; at FAK, > 10000 nM; in assay [2] it was 4000 nM.

Regarding `CNC(=O)c1cc(N2CCN(C)CC2)ccc1Nc1nc(Nc2ccc(F)cc2OC)ncc1Cl` [Example 16-2], the IC50 in assay [1] was 6 nM; against FAK, > 10000 nM; in assay [2], 600 nM.

As to `CNC(=O)c1cc(OC)ccc1Nc1nc(Nc2ccc(F)cc2OC)ncc1Cl` [Example 16-3], the IC50 is 21 nM in assay [1], 3000 nM on FAK and > 10000 nM in assay [2].

Take `CNC(=O)c1cc(N2CCC(N3CCCCC3)CC2)ccc1Nc1nc(Nc2ccc(F)cc2OC)ncc1Cl` [Example 16-4]: the IC50 in assay [1] was 9.5 nM; at FAK it was > 10000 nM; in assay [2] it was 920 nM.

In the case of `COc1cc(F)ccc1Nc1ncc(Cl)c(Nc2ccccc2S(=O)(=O)N2CCOCC2)n1` [Example 16B], the IC50 amounted to 11 nM in assay [1], 3000 nM against FAK and 7000 nM in assay [2].

Turning to `COc1cc(F)ccc1Nc1ncc(Cl)c(Nc2ccccc2S(=O)(=O)NCC(F)(F)F)n1` [Example 16C], the IC50 is 28 nM in assay [1], 900 nM against FAK and > 10000 nM in assay [2].

For `CNC(=O)c1cc(N2CCOCC2)ccc1Nc1nc(Nc2ccc(N3CCN(C(C)=O)CC3)cc2OC)ncc1Cl` [Example 18-1], the figures for the 50% inhibitory concentration (IC50) (in assay [1]; against FAK; in assay [2]) were 19 nM, > 10000 nM and 1290 nM, respectively.

As to `COc1cc(F)ccc1Nc1ncc(Cl)c(Nc2ccccc2S(=O)(=O)NC(C)C)n1` [Example 19-6], the values for the IC50 (in assay [1]; against FAK; in assay [2]) were 5 nM, 1000 nM and 700 nM, respectively.

Regarding `COc1cc(OC2CCN(C)CC2)ccc1Nc1ncc(Cl)c(Nc2ccccc2S(=O)(=O)NC(C)C)n1` [Example 19-7], the IC50 in assay [1] came out at 2.1 nM; on FAK, 300 nM; in assay [2], 110 nM.

On to `COc1c(Nc2ncc(Cl)c(Nc3ccccc3S(=O)(=O)NC(C)C)n2)ccc(N2CCOCC2)c1F` [Example 19-11], for which the IC50 was 38 nM in assay [1], > 10000 nM against FAK and 2000 nM in assay [2].

Consider `COc1cc(N2CCC(NC(C)=O)C2)ccc1Nc1ncc(Cl)c(Nc2ccccc2S(=O)(=O)NC(C)C)n1` (stereo not drawn) [Example 19-13], for which the IC50 was found to be 2.5 nM in assay [1], 300 nM against FAK and 1100 nM in assay [2].

For the compound `COc1cc(N2CCC(N3CCCC3)CC2)ccc1Nc1ncc(Cl)c(Nc2ccccc2S(=O)(=O)NC(C)C)n1` [Example 19-15], the concentration for half-maximal inhibition (IC50) was found to be 3.1 nM in assay [1], 500 nM against FAK and 360 nM in assay [2].

Take `COc1cc(N2CCC[C@H]2CN2CCCC2)ccc1Nc1ncc(Cl)c(Nc2ccccc2S(=O)(=O)NC(C)C)n1` [Example 19-16]: the concentration for half-maximal inhibition (IC50) is 2.3 nM in assay [1], 700 nM against FAK and 1100 nM in assay [2].

`COc1cc(OCC2CCCCN2C)ccc1Nc1ncc(Cl)c(Nc2ccccc2S(=O)(=O)NC(C)C)n1` (stereo not drawn) [Example 19-17]: the half-inhibitory concentration (IC50) in assay [1] was 1 nM; on FAK it was > 10000 nM; in assay [2], 170 nM.

For the compound `CCN(CC)C(=O)C1CCCN(c2ccc(Nc3ncc(Cl)c(Nc4ccccc4S(=O)(=O)NC(C)C)n3)c(OC)c2)C1` (stereo not drawn) [Example 19-18], the IC50 turned out to be 7 nM in assay [1], 130 nM at FAK and 870 nM in assay [2].

With `COc1c(Nc2ncc(Cl)c(Nc3ccccc3S(=O)(=O)NC(C)C)n2)ccc(OC2CCN(C)CC2)c1F` [Example 19-21], the IC50 in assay [1] was 84 nM; against FAK it was > 10000 nM; in assay [2], 1710 nM.
